The target in the assay is T1, human GPR91 receptor (Homo sapiens, UniProt Q9BXA5).
T1 construct: expressed in transfected cells; host or cells: CHO-K1 NFAT cells
T1 sequence (Q9BXA5 1-334): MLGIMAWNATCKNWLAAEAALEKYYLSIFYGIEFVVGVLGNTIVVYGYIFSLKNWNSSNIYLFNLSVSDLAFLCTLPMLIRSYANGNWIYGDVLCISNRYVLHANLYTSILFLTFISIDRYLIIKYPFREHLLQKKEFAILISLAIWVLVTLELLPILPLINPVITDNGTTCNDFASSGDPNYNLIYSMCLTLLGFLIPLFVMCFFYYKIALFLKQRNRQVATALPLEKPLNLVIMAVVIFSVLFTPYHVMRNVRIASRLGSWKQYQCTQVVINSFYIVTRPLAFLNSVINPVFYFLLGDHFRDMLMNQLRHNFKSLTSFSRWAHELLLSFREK
Kind of assay: Human GPR91 calcium mobilization assay. The assay is classed as cell-based. To be noted: CHO-K1 NFAT cells over expressing human GPR91 receptor; Fluo4 AM; agonist sodium succinate; flex station; read-out: hGPR91 IC50 (μM)*. The protocol: Human GPR91 Calcium Mobilization Assay
To determine IC50 in CHO NFAT cells over expressing human GPR91 receptor calcium mobilization assay in flex station mode was carried out.
Grow CHO-K1 NFAT cells over expressing human GPR91 receptors in alpha MEM media were supplemented with 10% FBS (heat inactivated), 0.5 mg/ml of G-418, 0.5 mg/ml of Zeocin and 0.6 mg/ml of Hygromycin B.
The cells were seeded at least 21 hours before the experiment at the density of 25000/well in 96 well plate (Corning cat #no. 3603). It was made sure that cells were at least 95% confluent on the day of assay. No antibiotics were used for seeding purpose.
On the day of assay the media was discarded from plates and plates were washed with 100 μl of HBSS assay buffer. The plates were loaded with Fluo4 AM at 2 μM concentration. Pluronic F-127 dye was solubilized in calcium assay buffer containing 0.1% BSA, i.e., 20 μl dye+20 μl Pluronic F127 for 10 ml. Appropriate amounts of 100× probenecid was added to the loading mixture 1× final (100 μl per 10 ml). Total volume of dye loaded was made 100 μl. The plate was then wrapped in aluminium foil to protect from light and were incubated for 90 mins at 37 degrees in cell culture incubator. At the end of incubation the plates was washed again with 100 μl of HBSS buffer without BSA and 75 μl of HBSS buffer was added (without BSA) to the plate.
Further, 8 point-Dose response curve of the compounds of the present disclosure was prepared in 100% DMSO followed by 57.14-fold dilution to 1.75× in 1.75% DMSO in assay buffer. 100 μL of 1.75×NCE was added to the wells as shown below and incubated at room temp on orbital shaker at 300 rpm for 15 min. Flexstation [excitation @ 485 nm and emission @ 525 nm] for a total time of 60 seconds. 25 μL of 8× agonist (800 μM sodium succinate) was added to each well using the flexstation after establishing the baseline for 20 sec, Measurement—Max-Min over 60 sec. Using the above protocol results obtained are tabulate din the Table 1 below: […]

A value given as a limit tells only on which side of the number the result lay.

Turning to `NC(=O)Cc1cccc(Oc2ccc(Oc3cccc4ccncc34)cc2C(F)(F)F)c1` [Compound C-3, 2-[3-[4-(8-isoquinolyloxy)-2-(trifluoromethyl)phenoxy]phenyl]acetamide], the IC50 is less than 5 µM.

`O=C(O)Cc1cccc(Oc2ccc(Oc3cccc4cnncc34)cc2C(F)(F)F)c1` [Compound A-2, 2-[3-[4-phthalazin-5-yloxy-2-(trifluoromethyl)phenoxy]phenyl]acetic acid]: the IC50 is less than 5 µM.

In the case of `FC(F)(F)c1cc(Oc2cccc3ccncc23)ccc1Oc1cccc(Cc2nnn[nH]2)c1` [Compound D-3, 8-[4-[3-(1H-tetrazol-5-ylmethyl)phenoxy]-3-(trifluoromethyl)phenoxy]isoquinoline], the IC50 lay within 5 to 10 µM.

Consider `O=C(O)Cc1cccc(Oc2ccc(Oc3ccc4ncn(C5COC5)c4c3)cc2C(F)(F)F)c1` [Compound A-26, 2-[3-[4-[3-(oxetan-3-yl)benzimidazol-5-yl]oxy-2-(trifluoromethyl)phenoxy]phenyl]acetic acid], for which the IC50 is less than 5 µM.

In the case of `O=C(O)Cc1cccc(Oc2ccc(Oc3ccc4[nH]nc(C(=O)O)c4c3)cc2C(F)(F)F)c1` [Compound A-47, 5-[4-[3-(carboxymethyl)phenoxy]-3-(trifluoromethyl)phenoxy]-1H-indazole-3-carboxylic acid], the concentration for half-maximal inhibition (IC50) was less than 5 µM.

On to `FC(F)(F)c1cc(Oc2cccc3ccncc23)ccc1Oc1cccc(CCc2nnc[nH]2)c1` [Compound D-1, 8-[4-[3-[2-(4H-1,2,4-triazol-3-yl)ethyl]phenoxy]-3-(trifluoromethyl)phenoxy]isoquinoline], for which the IC50 was greater than 10 µM.

Turning to `O=C(O)Cc1cccc(Oc2ccc(Oc3cccn4cncc34)cc2C(F)(F)F)c1` [Compound B-2, 2-[3-[4-imidazo[1,5-a]pyridin-8-yloxy-2-(trifluoromethyl)phenoxy]phenyl]acetic acid], the half-inhibitory concentration (IC50) is less than 5 µM.

On to `N#Cc1n[nH]c2ccc(Oc3ccc(Oc4cccc(CC(=O)O)c4)c(C(F)(F)F)c3)cc12` [Compound A-46, 2-[3-[4-[(3-cyano-1H-indazol-5-yl)oxy]-2-(trifluoromethyl)phenoxy]phenyl]acetic acid], for which the half-maximal inhibitory concentration (IC50) is less than 5 µM.

For `O=C(O)Cc1cccc(Oc2ccc(Oc3ccc4cnc(C(=O)O)n4c3)cc2C(F)(F)F)c1` [Compound A-31, 6-[4-[3-(carboxymethyl)phenoxy]-3-(trifluoromethyl)phenoxy]imidazo[1,5-a]pyridine-3-carboxylic acid], the IC50 is less than 5 µM.

With `O=C(O)Cc1cccc(Oc2ccc(Oc3ccc4ccn(CC(=O)O)c4c3)cc2C(F)(F)F)c1` [Compound A-33, 2-[3-[4-[1-(carboxymethyl)indol-6-yl]oxy-2-(trifluoromethyl)phenoxy]phenyl]acetic acid], the IC50 was less than 5 µM.

Consider `O=C(O)Cc1cccc(Oc2ccc(Oc3ccc4ccn(C5COC5)c4n3)cc2C(F)(F)F)c1` [Compound A-30, 2-[3-[4-[1-(oxetan-3-yl)pyrrolo[2,3-b]pyridin-6-yl]oxy-2-(trifluoromethyl)phenoxy]phenyl]acetic acid], for which the IC50 is greater than 10 µM.

Regarding `O=C(O)CCc1cccc(Oc2ccc(Oc3ccnc4ccccc34)cc2C(F)(F)F)c1` [Compound A-13, 3-[3-[4-(4-quinolyloxy)-2-(trifluoromethyl)phenoxy]phenyl]propanoic acid], the IC50 was greater than 10 µM.

Turning to `O=C(O)Cc1cccc(Oc2ccc(Oc3cccc4nncn34)cc2C(F)(F)F)c1` [Compound A-17, 2-[3-[4-([1,2,4]triazolo[4,3-a]pyridin-5-yloxy)-2-(trifluoromethyl)phenoxy]phenyl]acetic acid], the IC50 is greater than 10 µM.

Consider `O=C(O)Cc1cccc(Oc2ccc(Oc3ccc4cn(C5COC5)nc4c3)cc2C(F)(F)F)c1` [Compound A-22, 2-[3-[4-[2-(oxetan-3-yl)indazol-6-yl]oxy-2-(trifluoromethyl)phenoxy]phenyl]acetic acid], for which the IC50 is less than 5 µM.

As to `O=C(O)Cc1cccc(Oc2ccc(Oc3ccc4ncccc4c3)cc2C(F)(F)F)c1` [Compound A-6, 2-[3-[4-(6-quinolyloxy)-2-(trifluoromethyl)phenoxy]phenyl]acetic acid], the IC50 fell in the range of 5 to 10 µM.

On to `O=C(O)Cc1cccc(Oc2ccc(Oc3ccc4nnn(C5COC5)c4c3)cc2C(F)(F)F)c1` [Compound A-25, 2-[3-[4-[3-(oxetan-3-yl)benzotriazol-5-yl]oxy-2-(trifluoromethyl)phenoxy]phenyl]acetic acid], for which the IC50 is less than 5 µM.

On to `O=C(O)Cc1cccc(Oc2ccc(Oc3ccn4cnnc4c3)cc2C(F)(F)F)c1` [Compound A-19, 2-[3-[4-([1,2,4]triazolo[4,3-a]pyridin-7-yloxy)-2-(trifluoromethyl)phenoxy]phenyl]acetic acid], for which the IC50 is greater than 10 µM.

On to `O=C(O)CCc1cccc(Oc2ccc(Oc3cccc4c3OCCO4)cc2C(F)(F)F)c1` [Compound A-11, 3-[3-[4-(2,3-dihydro-1,4-benzodioxin-5-yloxy)-2-(trifluoromethyl)phenoxy]phenyl]propanoic acid], for which the IC50 was greater than 10 µM.

For `O=C(O)Cc1cccc(Oc2ccc(Oc3ccc4cnn(C5COC5)c4c3)cc2C(F)(F)F)c1` [Compound A-21, 2-[3-[4-[1-(oxetan-3-yl)indazol-6-yl]oxy-2-(trifluoromethyl)phenoxy]phenyl]acetic acid], the IC50 is less than 5 µM.

Take `O=C(O)Cc1cccc(Oc2ccc(Oc3ccc4ccn(C5COC5)c4c3)cc2C(F)(F)F)c1` [Compound A-20, 2-[3-[4-[1-(oxetan-3-yl)indol-6-yl]oxy-2-(trifluoromethyl)phenoxy]phenyl]acetic acid]: the half-inhibitory concentration (IC50) is less than 5 µM.

In the case of `O=C(O)CCc1cccc(Oc2ccc(Oc3cccc4c3CNCC4)cc2C(F)(F)F)c1` [Compound A-43, 3-[3-[4-(1,2,3,4-tetrahydroisoquinolin-8-yloxy)-2-(trifluoromethyl)phenoxy]phenyl]propanoic acid], the IC50 was greater than 10 µM.

For the compound `Cn1cc2c(Oc3ccc(Oc4cccc(CC(=O)O)c4)c(C(F)(F)F)c3)cccc2n1` [Compound A-15, 2-[3-[4-(2-methylindazol-4-yl)oxy-2-(trifluoromethyl)phenoxy]phenyl]acetic acid], the IC50 is less than 5 µM.

Consider `Cc1nc2ccc(Oc3ccc(Oc4cccc(CC(=O)O)c4)c(C(F)F)c3)cc2n1C1COC1` [Compound A-28, 2-[3-[2-(difluoromethyl)-4-[2-methyl-3-(oxetan-3-yl)benzimidazol-5-yl]oxy-phenoxy]phenyl]acetic acid], for which the IC50 was less than 5 µM.

For `O=C(O)Cc1cccc(Oc2ccc(Oc3ccc(F)c4ccncc34)cc2C(F)(F)F)c1` [Compound A-8, 2-[3-[4-[(5-fluoro-8-isoquinolyl)oxy]-2-(trifluoromethyl)phenoxy]phenyl]acetic acid], the IC50 is less than 5 µM.

`O=C(O)CCc1cccc(Oc2ccc(Oc3cccc4ccncc34)cc2C(F)(F)F)c1` [Compound A-42, 3-[3-[4-(8-isoquinolyloxy)-2-(trifluoromethyl)phenoxy]phenyl]propanoic acid]: the IC50 was less than 5 µM.

Turning to `FC(F)(F)c1cc(Oc2cccc3ccncc23)ccc1Oc1cccc(CCc2nnn[nH]2)c1` [Compound D-2, 8-[4-[3-[2-(1H-tetrazol-5-yl)ethyl]phenoxy]-3-(trifluoromethyl)phenoxy]isoquinoline], the IC50 was in the range of 5 to 10 µM.

`O=C(O)Cc1cccc(Oc2ccc(Oc3cccc4ccncc34)cc2C2CC2)c1` [Compound A-38, 2-[3-[2-cyclopropyl-4-(8-isoquinolyloxy)phenoxy]phenyl]acetic acid]: the IC50 was less than 5 µM.

Take `O=C(O)Cc1cccc(Oc2ccc(Oc3cccc4[nH]ncc34)cc2C(F)(F)F)c1` [Compound A-48, 2-[3-[4-(1H-indazol-4-yloxy)-2-(trifluoromethyl)phenoxy]phenyl]acetic acid]: the IC50 was less than 5 µM.

`O=C(O)CCc1cccc(Oc2ccc(Oc3cccc4cnccc34)cc2C(F)(F)F)c1` [Compound A-14, 3-[3-[4-(5-isoquinolyloxy)-2-(trifluoromethyl)phenoxy]phenyl]propanoic acid]: the IC50 is less than 5 µM.

For the compound `Cn1ncc2cccc(Oc3ccc(Oc4cccc(CC(=O)O)c4)c(C(F)(F)F)c3)c21` [Compound A-5, 2-[3-[4-(1-methylindazol-7-yl)oxy-2-(trifluoromethyl)phenoxy]phenyl]acetic acid], the IC50 is less than 5 µM.

The values are drawn from patent US11098026B2, “Fused bicyclic compounds, compositions and applications thereof” (IMPETIS BIOSCIENCES LIMITED, priority 2017, dated 2021).
